Results reported in patent US12590134B2, “GLP-1 agonist polypeptide compound and salt thereof, synthesis method therefor and use thereof” (Sinopep-Allsino Biopharmaceutical Co., Ltd., priority 2020, dated 2026).

target: human GLP-1R (Homo sapiens, UniProt P43220); assay: cAMP signal analysis of GLP-1R (GLP-1 receptor agonist activity); assay type: cell-based
Description: A wild human GLP-1R (NM_002062.5) was subjected to transient transfection and screened for two weeks by 600 μg/ml of hygromycin-B to obtain a cell line which was recombined and integrated into an FlpInCHO (Invitrogen) cell stable expression system. The culture condition of the FlpInCHO cell was as follows: 10% of heat-inactivated fetal calf serum was added to a DMEM culture solution, and the culture was performed in a 5% carbon dioxide cell incubator.
In the test, an LANCE cAMP detection kit was used for measuring the cAMP signal intensity.

Sequence of human GLP-1R (P43220 24-463): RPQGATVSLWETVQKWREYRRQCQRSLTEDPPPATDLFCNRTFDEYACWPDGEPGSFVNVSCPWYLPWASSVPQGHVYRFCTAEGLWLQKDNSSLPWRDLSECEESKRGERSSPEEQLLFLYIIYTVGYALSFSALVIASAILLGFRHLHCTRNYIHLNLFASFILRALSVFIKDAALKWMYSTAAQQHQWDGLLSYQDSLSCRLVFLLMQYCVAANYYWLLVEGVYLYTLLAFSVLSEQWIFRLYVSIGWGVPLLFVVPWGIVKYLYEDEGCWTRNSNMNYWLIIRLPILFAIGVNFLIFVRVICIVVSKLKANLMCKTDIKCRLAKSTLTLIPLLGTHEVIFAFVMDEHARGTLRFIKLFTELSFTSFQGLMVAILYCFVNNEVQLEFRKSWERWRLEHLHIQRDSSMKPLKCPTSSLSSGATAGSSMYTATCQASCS

| Structure (SMILES) | EC50 [nM] |
| --- | --- |
| CC[C@H](C)[C@H](NC(=O)[C@H](Cc1ccccc1)NC(=O)[C@H](CCC(=O)O)NC(=O)[C@H](CCCCNC(=O)COCCOCCNC(=O)COCCOCCNC(=O)CC[C@H](NC(=O)CCCCCCCCCCCCCCCCC(=O)O)C(=O)O)NC(=O)[C@H](C)NC(=O)[C@H](C)NC(=O)[C@H](CCC(N)=O)NC(=O)CNC(=O)[C@H](CCC(=O)O)NC(=O)[C@H](CC(C)C)NC(=O)[C@H](Cc1ccc(O)cc1)NC(=O)[C@H](CO)NC(=O)[C@H](CO)NC(=O)[C@@H](NC(=O)[C@H](CC(=O)O)NC(=O)[C@H](CO)NC(=O)[C@@H](NC(=O)[C@H](Cc1ccccc1)NC(=O)[C@@H](NC(=O)CNC(=O)[C@H](CCC(=O)O)NC(=O)[C@@H]1CCCN1C(=O)[C@@H](N)Cc1c[nH]cn1)[C@@H](C)O)[C@@H](C)O)C(C)C)C(=O)N[C@@H](C)C(=O)N[C@@H](Cc1c[nH]c2ccccc12)C(=O)N[C@@H](CC(C)C)C(=O)N[C@H](C(=O)N[C@@H](CCCNC(=N)N)C(=O)NCC(=O)N[C@@H](CCCNC(=N)N)C(=O)NCC(=O)O)C(C)C [NO: 18] | 3.12 ± 0.512 |
| CC[C@H](C)[C@H](NC(=O)[C@H](Cc1ccccc1)NC(=O)[C@H](CCC(=O)O)NC(=O)[C@H](CCCCNC(=O)COCCOCCNC(=O)COCCOCCNC(=O)CC[C@H](NC(=O)CCCCCCCCCCCCCCCCC(=O)O)C(=O)O)NC(=O)[C@H](C)NC(=O)[C@H](C)NC(=O)[C@H](CCC(N)=O)NC(=O)[C@@](C)(CC(F)(F)F)NC(=O)[C@H](CCC(=O)O)NC(=O)[C@H](CC(C)C)NC(=O)[C@H](Cc1ccc(O)cc1)NC(=O)[C@H](CO)NC(=O)[C@H](CO)NC(=O)[C@@H](NC(=O)[C@H](CC(=O)O)NC(=O)[C@H](CO)NC(=O)[C@@H](NC(=O)[C@H](Cc1ccccc1)NC(=O)[C@@H](NC(=O)CNC(=O)[C@H](CCC(=O)O)NC(=O)[C@@](C)(CC(F)(F)F)NC(=O)[C@@H](N)Cc1c[nH]cn1)[C@@H](C)O)[C@@H](C)O)C(C)C)C(=O)N[C@@H](C)C(=O)N[C@@H](Cc1c[nH]c2ccccc12)C(=O)N[C@@H](CC(C)C)C(=O)N[C@H](C(=O)N[C@@H](CCCNC(=N)N)C(=O)NCC(=O)N[C@@H](CCCNC(=N)N)C(=O)NCC(=O)O)C(C)C [NO: 19] | 0.791 ± 0.0635 |
| CC[C@H](C)[C@H](NC(=O)[C@H](Cc1ccccc1)NC(=O)[C@H](CCC(=O)O)NC(=O)[C@H](CCCCNC(=O)COCCOCCNC(=O)COCCOCCNC(=O)CC[C@H](NC(=O)CCCCCCCCCCCCCCCCC(=O)O)C(=O)O)NC(=O)[C@H](C)NC(=O)[C@H](C)NC(=O)[C@H](CCC(N)=O)NC(=O)CNC(=O)[C@H](CCC(=O)O)NC(=O)[C@H](CC(C)C)NC(=O)[C@H](Cc1ccc(O)cc1)NC(=O)[C@H](CO)NC(=O)[C@H](CO)NC(=O)[C@@H](NC(=O)[C@H](CC(=O)O)NC(=O)[C@H](CO)NC(=O)[C@@H](NC(=O)[C@H](Cc1ccccc1)NC(=O)[C@@H](NC(=O)CNC(=O)[C@H](CCC(=O)O)NC(=O)[C@@](C)(CC(F)(F)F)NC(=O)[C@@H](N)Cc1c[nH]cn1)[C@@H](C)O)[C@@H](C)O)C(C)C)C(=O)N[C@@H](C)C(=O)N[C@@H](Cc1c[nH]c2ccccc12)C(=O)N[C@@H](CC(C)C)C(=O)N[C@H](C(=O)N[C@@H](CCCNC(=N)N)C(=O)NCC(=O)N[C@@H](CCCNC(=N)N)C(=O)NCC(=O)O)C(C)C [NO: 20] | 0.693 ± 0.0557 |
